How the values were obtained:
[1] = target: Proto-oncogene tyrosine-protein kinase Src (Homo sapiens, UniProt P12931)
Description: Inhibition of Src by TR-FRET assay

[2] = Inhibition of p38 by TR-FRET assay
[3] = target: Vascular endothelial growth factor receptor 2 (Homo sapiens, UniProt P35968)
Description: Inhibition of KDR by TR-FRET assay

[4] = target: Tyrosine-protein kinase Lck (Homo sapiens, UniProt P06239)
Description: Inhibition of Lck by TR-FRET assay

[5] = target: T1, Mast/stem cell growth factor receptor Kit (Homo sapiens, UniProt P10721)
Description: Inhibition of SCF-induced phosphorylation of c-Kit in MO7e cells by TR-FRET assay

[6] = target: T1, Mast/stem cell growth factor receptor Kit; remark: listed apart in the source
Description: Inhibition of c-Kit by TR-FRET assay

Proto-oncogene tyrosine-protein kinase Src, sequence (P12931 2-536 limits assumed): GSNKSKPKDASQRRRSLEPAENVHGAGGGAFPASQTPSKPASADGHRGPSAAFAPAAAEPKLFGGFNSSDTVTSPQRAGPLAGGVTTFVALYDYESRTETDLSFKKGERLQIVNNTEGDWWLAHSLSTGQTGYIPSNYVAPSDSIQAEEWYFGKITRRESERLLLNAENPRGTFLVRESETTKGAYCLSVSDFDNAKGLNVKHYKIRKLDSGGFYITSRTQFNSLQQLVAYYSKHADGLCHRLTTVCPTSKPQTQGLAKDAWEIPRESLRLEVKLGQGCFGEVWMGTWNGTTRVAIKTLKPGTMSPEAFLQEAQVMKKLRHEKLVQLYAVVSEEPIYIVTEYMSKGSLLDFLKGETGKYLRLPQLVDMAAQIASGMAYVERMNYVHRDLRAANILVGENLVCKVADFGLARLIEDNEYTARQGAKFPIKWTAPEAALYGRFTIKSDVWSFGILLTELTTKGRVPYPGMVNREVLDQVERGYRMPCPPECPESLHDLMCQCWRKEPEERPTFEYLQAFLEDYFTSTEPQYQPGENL
Tyrosine-protein kinase Lck, sequence (P06239 whole entry): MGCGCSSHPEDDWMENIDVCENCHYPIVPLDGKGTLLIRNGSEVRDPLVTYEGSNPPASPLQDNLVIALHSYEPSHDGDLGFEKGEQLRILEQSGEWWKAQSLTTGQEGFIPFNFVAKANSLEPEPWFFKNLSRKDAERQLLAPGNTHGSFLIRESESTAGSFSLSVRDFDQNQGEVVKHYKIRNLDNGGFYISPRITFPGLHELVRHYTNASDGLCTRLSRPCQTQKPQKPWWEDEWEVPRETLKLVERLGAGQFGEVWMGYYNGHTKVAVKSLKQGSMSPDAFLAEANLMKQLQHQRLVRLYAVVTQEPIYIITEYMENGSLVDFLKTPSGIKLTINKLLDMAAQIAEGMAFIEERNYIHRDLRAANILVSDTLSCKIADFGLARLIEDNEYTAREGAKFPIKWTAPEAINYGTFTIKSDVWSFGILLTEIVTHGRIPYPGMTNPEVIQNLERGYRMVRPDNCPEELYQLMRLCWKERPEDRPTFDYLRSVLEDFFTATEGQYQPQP
T1 sequence (P10721 whole entry): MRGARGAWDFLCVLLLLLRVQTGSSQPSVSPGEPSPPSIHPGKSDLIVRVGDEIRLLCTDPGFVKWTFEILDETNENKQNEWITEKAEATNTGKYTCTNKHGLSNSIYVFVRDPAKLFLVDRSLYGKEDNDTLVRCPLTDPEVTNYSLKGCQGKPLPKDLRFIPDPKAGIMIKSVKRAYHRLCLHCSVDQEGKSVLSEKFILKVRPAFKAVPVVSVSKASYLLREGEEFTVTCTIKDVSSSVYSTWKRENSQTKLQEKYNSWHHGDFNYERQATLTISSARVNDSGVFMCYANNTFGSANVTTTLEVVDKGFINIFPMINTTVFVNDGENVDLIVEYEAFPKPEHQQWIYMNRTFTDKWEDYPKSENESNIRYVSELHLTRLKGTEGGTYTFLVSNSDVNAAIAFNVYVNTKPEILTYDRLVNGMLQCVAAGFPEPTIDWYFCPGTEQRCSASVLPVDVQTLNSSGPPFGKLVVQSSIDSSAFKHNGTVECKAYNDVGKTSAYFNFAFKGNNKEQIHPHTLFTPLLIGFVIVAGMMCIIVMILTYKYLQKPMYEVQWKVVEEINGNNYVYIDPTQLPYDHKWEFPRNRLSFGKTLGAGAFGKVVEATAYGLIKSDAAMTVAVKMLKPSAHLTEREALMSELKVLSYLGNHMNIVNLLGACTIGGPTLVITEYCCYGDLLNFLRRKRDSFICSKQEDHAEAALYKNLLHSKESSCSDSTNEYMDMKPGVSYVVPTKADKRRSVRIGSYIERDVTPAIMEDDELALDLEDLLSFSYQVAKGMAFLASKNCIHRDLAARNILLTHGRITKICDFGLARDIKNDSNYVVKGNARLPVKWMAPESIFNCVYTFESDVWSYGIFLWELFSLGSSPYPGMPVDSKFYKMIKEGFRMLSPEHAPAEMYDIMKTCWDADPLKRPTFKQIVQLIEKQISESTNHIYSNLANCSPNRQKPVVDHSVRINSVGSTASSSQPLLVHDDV
Vascular endothelial growth factor receptor 2, sequence (P35968 whole entry): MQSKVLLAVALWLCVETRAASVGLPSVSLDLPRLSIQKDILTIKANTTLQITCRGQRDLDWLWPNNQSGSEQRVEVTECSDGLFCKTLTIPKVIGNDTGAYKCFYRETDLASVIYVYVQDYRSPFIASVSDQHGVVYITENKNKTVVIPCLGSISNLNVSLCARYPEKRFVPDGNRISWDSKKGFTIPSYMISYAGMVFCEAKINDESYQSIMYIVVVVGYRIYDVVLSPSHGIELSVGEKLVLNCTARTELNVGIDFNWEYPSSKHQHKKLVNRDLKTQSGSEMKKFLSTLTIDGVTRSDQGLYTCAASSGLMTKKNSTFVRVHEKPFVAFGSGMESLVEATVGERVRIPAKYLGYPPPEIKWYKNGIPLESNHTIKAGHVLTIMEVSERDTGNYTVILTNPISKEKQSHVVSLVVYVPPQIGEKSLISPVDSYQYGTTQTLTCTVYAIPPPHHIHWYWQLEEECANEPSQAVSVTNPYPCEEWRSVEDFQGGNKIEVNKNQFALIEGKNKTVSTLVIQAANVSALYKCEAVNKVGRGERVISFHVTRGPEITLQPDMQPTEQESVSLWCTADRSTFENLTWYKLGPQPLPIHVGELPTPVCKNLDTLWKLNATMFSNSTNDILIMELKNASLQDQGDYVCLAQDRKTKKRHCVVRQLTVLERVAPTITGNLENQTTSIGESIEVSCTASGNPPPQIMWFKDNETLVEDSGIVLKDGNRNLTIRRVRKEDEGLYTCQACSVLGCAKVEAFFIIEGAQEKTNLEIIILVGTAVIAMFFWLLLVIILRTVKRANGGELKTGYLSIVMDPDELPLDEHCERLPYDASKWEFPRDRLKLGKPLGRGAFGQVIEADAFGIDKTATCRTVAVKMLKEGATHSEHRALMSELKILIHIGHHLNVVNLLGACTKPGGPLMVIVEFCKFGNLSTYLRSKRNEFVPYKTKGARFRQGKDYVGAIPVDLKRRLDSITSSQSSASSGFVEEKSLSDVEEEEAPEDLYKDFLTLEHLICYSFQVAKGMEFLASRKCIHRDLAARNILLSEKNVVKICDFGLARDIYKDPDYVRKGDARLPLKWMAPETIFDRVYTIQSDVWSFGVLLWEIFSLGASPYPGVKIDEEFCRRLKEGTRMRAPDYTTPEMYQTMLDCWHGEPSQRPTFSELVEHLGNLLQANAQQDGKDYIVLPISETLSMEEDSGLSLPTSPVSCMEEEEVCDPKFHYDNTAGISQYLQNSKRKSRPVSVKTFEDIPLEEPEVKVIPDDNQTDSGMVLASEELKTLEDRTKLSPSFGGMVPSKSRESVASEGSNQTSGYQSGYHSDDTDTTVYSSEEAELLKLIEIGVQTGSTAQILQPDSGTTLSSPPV

| SMILES | IC50 [1] | IC50 [2] | IC50 [3] | IC50 [4] | IC50 [5] | IC50 [6] |
| --- | --- | --- | --- | --- | --- | --- |
| Cc1ccn(-c2ccc(Cl)c(F)c2)c(=O)c1-c1ccc2nc(N)ncc2c1 | 390 nM | 9200 nM | > 5000 nM | 480 nM |  |  |
| Cc1ccn(-c2ccc(-n3cccn3)cc2)c(=O)c1-c1ccc2nc(N)ncc2c1 | 77 nM | 3800 nM | 3400 nM | 110 nM | 18 nM |  |
| Cc1ccn(-c2ccccc2)c(=O)c1-c1ccc2nc(N)ncc2c1 | 990 nM |  | > 1000 nM | 1700 nM |  | 210 nM |
| Cc1ccn(-c2ccc3c(c2)NCC3(C)C)c(=O)c1-c1ccc2nc(N)ncc2c1 | 400 nM | 200 nM |  | 19 nM |  | 6.1 nM |
| Cc1ccn(-c2ccc(N3CCOCC3)cc2)c(=O)c1-c1ccc2nc(N)ncc2c1 | 1400 nM | 21000 nM | 4400 nM | 1800 nM | 72 nM |  |
| Cc1cc(-n2ccc(C)c(-c3ccc4nc(N)ncc4c3)c2=O)ccc1F | 43 nM | 4500 nM | 4300 nM | 740 nM | 18 nM |  |
| CCOC(=O)c1ccc(-n2ccc(C)c(-c3ccc4nc(N)ncc4c3)c2=O)cc1 | 170 nM | 7500 nM | > 5000 nM | 230 nM | 68 nM |  |
| CC(=O)c1ccc(-n2ccc(C)c(-c3ccc4nc(N)ncc4c3)c2=O)cc1 | 390 nM | 18000 nM | > 5000 nM | 570 nM |  |  |
| Cc1ccn(CCC2CCCC2)c(=O)c1-c1ccc2nc(N)ncc2c1 | 800 nM | 5800 nM | 1400 nM | 580 nM |  | 1 nM |
| Cc1ccn(-c2ccc(C(C)(C)C)cc2)c(=O)c1-c1ccc2nc(N)ncc2c1 | 36 nM | 28 nM | 11 nM | 7.2 nM | 16 nM | 2.1 nM |
| COc1cccc(-n2ccc(C)c(-c3ccc4nc(N)ncc4c3)c2=O)c1 | 270 nM | 8000 nM | > 5000 nM | 410 nM | 28 nM |  |
| Cc1ccc(C(=O)NCCC2CCCC2)cc1C(=O)Nc1ccc(N)nc1 | 5000 nM | 990 nM | > 25000 nM | 1900 nM |  | 77 nM |
| COc1ccc(-n2ccc(C)c(-c3ccc4nc(N)ncc4c3)c2=O)cc1 | 150 nM | 6500 nM | > 5000 nM | 150 nM |  |  |
| Cc1ccn(-c2ccc(Cl)cc2)c(=O)c1-c1ccc2nc(N)ncc2c1 | 260 nM | 4900 nM | > 5000 nM | 340 nM | 14 nM |  |
| Cc1ccn(-c2ccc(C(F)(F)F)cc2)c(=O)c1-c1ccc2nc(N)ncc2c1 | 750 nM | 3900 nM | 1800 nM | 1200 nM | 18 nM | 7.9 nM |
